Here are results for four molecules from paper PMC10937419, “Exploring pyrrolidinyl-spirooxindole natural products as promising platforms for the synthesis of novel spirooxindoles as EGFR/CDK2 inhibitors for halting breast cancer cells” (Frontiers in Chemistry, 2024).

Assay [1] deals with MCF-7 cells. Description: MTT cytotoxicity assay, MCF-7 breast cancer cells. The class given is cell-based. Conditions: Homo sapiens, MCF7; MTT assay; mean ± SD of three independent trials; read-out: IC50 ± SD, MCF-7. Here is the method: (§1) All cells were incubated at 37 °C in 5% carbon dioxide atmosphere (NuAire). Cells were plated at a density of 5x10^4 cells in triplicates in a plate of 96 wells. On the second day, cells were treated with the compounds with concentrations of (0.01, 0.1, 1, 10, and 100 µM). Cell viability was assessed using the MTT assay [6].

In the next assay the test system is MDA-MB-231 cells. Description: MTT cytotoxicity assay, MDA-MB-231 breast cancer cells. Format: cell-based. Conditions: Homo sapiens, MDA-MB-231, MTT assay; mean ± SD of three independent trials; read-out: IC50 ± SD, MDA-MB-231. Here is the method:
as §1

The next assay deals with T1, EGFR kinase (Homo sapiens, UniProt P00533).
T1 construct: purchased BPS Bioscience Corporation 40321
T1 sequence (P00533 25-1210): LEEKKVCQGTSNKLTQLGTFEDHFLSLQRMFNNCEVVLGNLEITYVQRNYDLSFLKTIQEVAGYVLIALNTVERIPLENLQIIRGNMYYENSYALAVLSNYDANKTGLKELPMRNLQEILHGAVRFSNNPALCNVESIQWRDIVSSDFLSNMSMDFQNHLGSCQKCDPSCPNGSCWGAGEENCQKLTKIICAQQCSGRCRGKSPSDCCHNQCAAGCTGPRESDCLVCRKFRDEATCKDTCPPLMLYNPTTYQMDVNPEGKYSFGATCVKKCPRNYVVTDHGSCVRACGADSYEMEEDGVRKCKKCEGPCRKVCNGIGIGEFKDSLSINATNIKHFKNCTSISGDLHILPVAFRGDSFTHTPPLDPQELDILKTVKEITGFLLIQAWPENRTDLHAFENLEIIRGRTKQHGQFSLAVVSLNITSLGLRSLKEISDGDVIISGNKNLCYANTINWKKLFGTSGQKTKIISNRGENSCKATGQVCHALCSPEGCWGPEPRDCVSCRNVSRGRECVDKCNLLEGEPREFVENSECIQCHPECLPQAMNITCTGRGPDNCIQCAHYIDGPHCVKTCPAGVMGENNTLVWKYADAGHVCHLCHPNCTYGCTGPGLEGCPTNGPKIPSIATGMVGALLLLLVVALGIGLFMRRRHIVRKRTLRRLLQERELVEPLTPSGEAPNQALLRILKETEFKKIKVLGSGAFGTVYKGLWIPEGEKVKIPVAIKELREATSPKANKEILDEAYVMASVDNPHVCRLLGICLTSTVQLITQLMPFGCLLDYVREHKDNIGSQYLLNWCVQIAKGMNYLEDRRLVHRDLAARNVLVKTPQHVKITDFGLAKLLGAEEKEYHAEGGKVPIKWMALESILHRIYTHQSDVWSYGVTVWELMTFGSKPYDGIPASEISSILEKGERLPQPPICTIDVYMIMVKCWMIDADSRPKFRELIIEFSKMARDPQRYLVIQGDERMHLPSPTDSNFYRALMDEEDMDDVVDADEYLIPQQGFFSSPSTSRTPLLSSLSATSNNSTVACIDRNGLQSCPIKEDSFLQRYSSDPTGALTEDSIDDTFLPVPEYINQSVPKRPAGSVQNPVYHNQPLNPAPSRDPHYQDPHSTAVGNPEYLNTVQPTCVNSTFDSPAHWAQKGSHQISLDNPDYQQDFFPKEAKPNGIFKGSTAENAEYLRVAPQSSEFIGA
Kind of assay: EGFR kinase inhibition assay. Format: biochemical. The settings on record: for % remaining EGFR kinase activity (relative to control): signal relative to control; for % remaining EGFR kinase activity (relative to control) / inhibition at 0.01 µM / inhibition at 0.1 µM / inhibition at 1 µM / inhibition at 2.5 µM / inhibition at 5 µM / inhibition at 10 µM: ΔT=30 min; for IC50: average of three independent replicates; for % Of EGFR inhibition: concentration not given in Table 2, matches 10 µM in the 4th table. Here is the method: (§2) Inhibitory activities of 5g, 5l, and 5n were tested against EGFR and CDK-2.
(§3) Plus, Promega, USA) inhibition assay.

In assay [2] the test system is MCF-7 cells. Description: Annexin V/PI staining flow cytometry (apoptosis/necrosis). Format: cell-based. The settings on record: MCF-7, at the IC50 value, 48 h. Here is the method:
The apoptotic activity of compounds 5g was determined by flow cytometric analysis of Annexin V/PI staining of untreated and treated MCF-7 cells. […] Additionally, they induced necrotic cell death by 5.43% compared to 2.12% in the untreated control.
FIGURE 4 (A) Bar representation of the percentage of apoptosis (early and late apoptotic cell population) using Annexin V/Propidium Iodide staining.
MCF-7 cells were seeded into 6-well culture plates (3-5× 10^5 cells/well) and incubated overnight. […] Next, media supernatants and cells were collected and rinsed with ice-cold PBS. Then cells were suspended the cells in 100 µL of annexin binding buffer solution "25 mM CaCl2, 1.4 M NaCl, and 0.1 M Hepes/NaOH, pH 7.4” and incubation with “Annexin V-FITC solution (1:100) and propidium iodide (PI)” at a concentration equals 10 µg/mL in the dark for 30 min. Stained cells were then acquired by BD FACSCalibur™ Flow Cytometer.

A further assay concerns the target T2, CDK-2 kinase (Homo sapiens, UniProt P24941).
T2 construct: purchased not clearly printed (Promega, USA is printed after 'Kinase-Glo Plus'; #79599 is a BPS Bioscience number to my knowledge) 79599
Description: CDK-2 kinase inhibition assay (Kinase-Glo Plus). Format: biochemical. The settings on record: for CDK-2 kinase activity remaining (% of control): signal relative to control; for CDK-2 kinase activity remaining (% of control) / inhibition at 0.01 µM / inhibition at 0.1 µM / inhibition at 1 µM / inhibition at 2.5 µM / inhibition at 5 µM / inhibition at 10 µM: ΔT=30 min; for inhibition at 0.01 µM / inhibition at 0.1 µM / inhibition at 1 µM / inhibition at 2.5 µM / inhibition at 5 µM / inhibition at 10 µM: read-out: % of inhibition, CDK2; for IC50: average of three independent replicates. Here is the method:
as §2, §3

In assay [3] the test system is MCF-7 cells. Description: RT-PCR gene expression of apoptosis-related genes. The settings on record: MCF-7, at the IC50 value, 48 h. The class given is cell-based. From the text: Both the untreated and treated MCF-7 cells were subjected to RT-PCR to confirm apoptotic cell death (Figure 5). […] These findings are in line with the possibility of triggering cell death by blocking enzymes. Activation of the intrinsic apoptotic pathway leads to mitochondrial potential loss and cytochrome c release. When the ratio of proteins that promote cell death to those that prevent it rises, a cascade reaction involving caspases 3 and 9 is set in motion, leading to cell death by caspase-dependent apoptosis.
“Values are expressed as Mean ± SD of three independent replicates”. “Data were normalized using β-actin as house-keeping gene. The dashed line represents the gene expression level of untreated control. Fold change was calculated using 2^^- ΔΔCT”.
Gene expression of Bcl-2, the anti-apoptotic gene, and the pro-apoptotic genes P53, Bax, and Caspapses-3,8,9 were examined to delve deeper into the apoptotic pathway. […] After treatment, RT-PCR reaction was carried out following routine work. Then, the Ct values were collected to calculate the relative genes’ expression in all samples by normalization to the β-actin housekeeping gene.

Another assay deals with WISH cells. Kind of assay: MTT cytotoxicity (safety) assay, normal WISH cells. The class given is cell-based. Conditions: mean ± SD of three independent trials. Here is the method:
The cytotoxicity of the synthesized compounds was tested using the MTT assay on breast cancer cells (MCF-7 and MDA-MB-231).
The methods for the Cytotoxic activity ([Mosmann, 1983]; [Nafie et al., 2020a]); EGFR/CDK-2 enzyme inhibition ([Nafie et al., 2022a]); Flow cytometry using Annexin V/PI staining; Gene expression analysis using RT-PCR ([Nafie et al., 2022b]); are amended in the Supplementary Material S1.
Both breast cancer; MCF-7 and MDA-MB-231 and normal (WISH) cells were purchased from the National Research Institute, Egypt, and maintained in RPMI-1640 medium L-Glutamine (Lonza Verviers SPRL, Belgium, cat#12-604F). All cells were incubated at 37 °C in 5% carbon dioxide atmosphere (NuAire). Cells were plated at a density of 5x10^4 cells in triplicates in a plate of 96 wells. On the second day, cells were treated with the compounds with concentrations of (0.01, 0.1, 1, 10, and 100 µM). Cell viability was assessed using the MTT assay [6].

Assay [4] deals with MCF-7 cells. Description: Cell cycle analysis by flow cytometry. Conditions: MCF-7, at the IC50 value, 48 h. Format: cell-based.
In another assay the test system is CDK-2. Also on record: method as in Al-Jassas, et al., 2023. The settings on record: ref Al-Jassas, et al., 2023; read-out: CDK-2 inhibition; cited from earlier work.
The next assay relates to EGFR. Also on record: method as in Al-Jassas, et al., 2023. Conditions: ref Al-Jassas, et al., 2023; read-out: IC50 for EGFR inhibition; cited from earlier work.
The subject of the next assay is MCF-7. Also on record: method as in Al-Jassas, et al., 2023. Conditions: ref Al-Jassas, et al., 2023; cited from earlier work.
A further assay relates to HepG2. Also on record: method as in Al-Jassas, et al., 2023. The settings on record: ref Al-Jassas, et al., 2023; cited from earlier work.
The test system of the next assay is A549 cells. Also on record: method as in Barakat, et al., 2023. The settings on record: ref Barakat, et al., 2023, cited from earlier work.

For the molecule `O=C(O)CN1C(=O)S[C@@]2(C1=O)[C@@H](c1ccc(Cl)cc1)[C@H]1CSCN1[C@@]21C(=O)Nc2ccc(Br)cc21` [Compound 5g, 2-((3S,6′S,7′S,7a′S)-5-bromo-7'-(4-chlorophenyl)-2,2″,4″-trioxo-7′,7a′-dihydro-1′H,3′H-dispiro [indoline-3,5′-pyrrolo [1,2-c]thiazole-6′,5″-thiazolidin]-3″-yl)acetic acid], the IC50 in the assay with MCF-7 cells [1] came out at 2800 ± 400 nM; in the assay on MDA-MB-231 cells it was 23500 ± 900 nM; against EGFR kinase, 26 ± 6 nM; at CDK-2 kinase it was 301 nM; in the assay with WISH cells it was 39300 ± 1800 nM. Moreover, the “% remaining EGFR kinase activity (relative to control)” value at EGFR kinase (0.01 µM) came to 90.58%; at EGFR kinase (0.1 µM), 69.72%; at EGFR kinase (1 µM) it was 40.27%; at EGFR kinase (2.5 µM), 33.39%; at EGFR kinase (5 µM), 31.63%; at EGFR kinase (10 µM) it was 7.867%. Also, the inhibition at 0.01 µM against EGFR kinase (0.01 µM) came out at 9.42%; on CDK-2 kinase (0.01 µM), 9.89%. The inhibition at 0.1 µM against EGFR kinase (0.1 µM) was found to be 30.3%; on CDK-2 kinase (0.1 µM) it was 21.5%. The inhibition at 1 µM turned out to be 59.7% against EGFR kinase (1 µM) and 35.5% on CDK-2 kinase (1 µM). Moreover, the figures for the inhibition at 2.5 µM against EGFR kinase (2.5 µM) and at CDK-2 kinase (2.5 µM) were 66.6% and 39.3%, respectively. Moreover, the inhibition at 5 µM at EGFR kinase (5 µM) worked out at 68.4%; on CDK-2 kinase (5 µM) it was 66%. Besides, the inhibition at 10 µM on EGFR kinase (10 µM) amounted to 92.6%; at CDK-2 kinase (10 µM), 91.9%. At EGFR kinase, the “% Of EGFR inhibition” value is 92.6 ± 1.9%. Besides, in the assay with MCF-7 cells [2], the early apoptosis is on record as 21.87%. The same molecule returned a late apoptosis in the assay on MCF-7 cells [2] of 10.15%. Further, the necrotic cell death in the assay on MCF-7 cells [2] (untreated control 2.12%) came out at 5.43%. Further, the “CDK-2 kinase activity remaining (% of control)” value was 90.11% on CDK-2 kinase (0.01 µM); 78.5% at CDK-2 kinase (0.1 µM); 64.55% at CDK-2 kinase (1 µM); 60.7% on CDK-2 kinase (2.5 µM); 33.99% on CDK-2 kinase (5 µM); 27.2254% on CDK-2 kinase (10 µM). Moreover, in the assay on MCF-7 cells [3] (anti-apoptotic gene, downregulated), the “Bcl-2 gene expression fold change” value came out at 0.39 fold. Besides, the “Bax gene expression fold change” value with MCF-7 cells [3] (normalized to β-actin, 2^-ΔΔCT) was found to be 6.26 fold. Besides, the “P53 gene expression fold change” value with MCF-7 cells [3] (normalized to β-actin, 2^-ΔΔCT) is on record as 4.1 fold. The “caspase 3 gene expression fold change” value with MCF-7 cells [3] (normalized to β-actin, 2^-ΔΔCT) is 9.2 fold. In the assay on MCF-7 cells [3] (normalized to β-actin, 2^-ΔΔCT), the “caspase 8 gene expression fold change” value was found to be 1.7 fold. Besides, in the assay on MCF-7 cells [3] (normalized to β-actin, 2^-ΔΔCT), the “caspase 9 gene expression fold change” value is 6.13 fold. The “cell population in the G0-G1-phase” value with MCF-7 cells [4] (control 31%) is 39.8%. For the same molecule, in the assay with MCF-7 cells [4] (control 32.1%), the “cell population in the S-phase” value was 45.2%. In addition, the “cells population at G2/M phase” value in the assay with MCF-7 cells [4] (versus untreated control) is reported as “decreased”.

As for `COC(=O)[C@H](C)NC(=O)CN1C(=O)S[C@@]2(C1=O)[C@@H](c1ccc(Cl)cc1)[C@H]1CSCN1[C@@]21C(=O)Nc2cc(Cl)ccc21` [Compound 5n, Methyl (2-((3S,6′S,7′S,7a′S)-6-chloro-7'-(4-chlorophenyl)-2,2″,4″-trioxo-7′,7a′-dihydro-1′H,3′H-dispiro [indoline-3,5′-pyrrolo [1,2-c]thiazole-6′,5″-thiazolidin]-3″-yl)acetyl)alaninate], the IC50 with MCF-7 cells [1] was found to be 3900 ± 300 nM; in the assay with MDA-MB-231 cells, 5300 ± 400 nM; on EGFR kinase it was 40 ± 1 nM; on CDK-2 kinase, 557 nM; in the assay on WISH cells, 47200 ± 2100 nM. Also, the “% remaining EGFR kinase activity (relative to control)” value is given as 71.48% on EGFR kinase (0.01 µM); 59.63% at EGFR kinase (0.1 µM); 36.13% on EGFR kinase (1 µM); 37.42% at EGFR kinase (2.5 µM); 30.59% on EGFR kinase (5 µM); 8.54% on EGFR kinase (10 µM). The inhibition at 0.01 µM against EGFR kinase (0.01 µM) amounted to 28.5%; at CDK-2 kinase (0.01 µM), 8.95%. The inhibition at 0.1 µM was 40.4% at EGFR kinase (0.1 µM) and 25.6% on CDK-2 kinase (0.1 µM). For the same molecule, the inhibition at 1 µM was 63.9% against EGFR kinase (1 µM) and 36.8% at CDK-2 kinase (1 µM). The values for the inhibition at 2.5 µM at EGFR kinase (2.5 µM) and on CDK-2 kinase (2.5 µM) were 62.6% and 38.2%, respectively. In addition, the inhibition at 5 µM against EGFR kinase (5 µM) turned out to be 69.4%; at CDK-2 kinase (5 µM) it was 52.7%. For the same molecule, the inhibition at 10 µM on EGFR kinase (10 µM) turned out to be 91.2%; on CDK-2 kinase (10 µM) it was 88.7%. In addition, on EGFR kinase, the “% Of EGFR inhibition” value stood at 91.2 ± 2.1%. For the same molecule, the “CDK-2 kinase activity remaining (% of control)” value was found to be 91.05% at CDK-2 kinase (0.01 µM); 74.4404% on CDK-2 kinase (0.1 µM); 63.25% at CDK-2 kinase (1 µM); 61.79% at CDK-2 kinase (2.5 µM); 47.27% at CDK-2 kinase (5 µM); 42.84% at CDK-2 kinase (10 µM). On CDK-2 kinase (concentration not given in Table 2, matches 10 µM in the 5th table), the “% Of CDK-2 inhibition” value was 88.7%.

For `O=C(c1ccc(Br)cc1)[C@H]1[C@H](c2cn(-c3ccccc3)nc2-c2ccccc2)C2CC3CCCCC3N2[C@]12C(=O)Nc1ccc(Cl)cc12` (stereo partly shown) [Compound II], the IC50 in the assay on CDK-2 is 35 nM; with EGFR, 96.6 nM; in the assay with MCF-7, 189 ± 10 nM; in the assay with HepG2, 1040 ± 210 nM.

Consider `O=C(c1nc2ccccc2[nH]1)[C@H]1[C@H](c2ccc(Cl)cc2Cl)C2CC3CCCCC3N2[C@@]12c1ccccc1-c1nc3ccccc3nc12` (stereo partly shown) [hit III], for which the “selectivity index (SI)” value in the assay with A549 cells (A549 cells versus normal lung fibroblasts Wi-38) is on record as 6.64. The IC50 in the assay with A549 cells is 54 nM.
